Laboratory results published in patent US12398141B2 (SHANGHAI SYNERGY PHARMACEUTICAL SCIENCES CO., LTD, priority 2019, dated 2025).

Tests used:
[1] = target: JAK3 (Homo sapiens (Human), UniProt P52333); assay: JAK3 LANCE Ultra kinase assay; type: biochemical; conditions: 4 uM ATP
[2] = tested on: TF-1 cell; assay: TF-1 cell proliferation test; type: cell-based; conditions: Homo sapiens, 72 h
Description: Inhibiting test of the compounds of the invention on proliferation of Blast T cell and TF-1 cell (American type culture collection) was carried out by the following method. The tested compounds […], and […] were dissolved in dimethyl sulfoxide from 0.0006 to 10 μM in quadruplicate dilutions. […] The luminescence value was read on Microplate Reader (Molecular Device). […] The IC50 values of the corresponding compounds were then obtained by fitting by using the XLFit fitting tool in excel.

[3] = target: JAK1 (Homo sapiens (Human), UniProt P23458); assay: JAK1 LANCE Ultra kinase assay; type: biochemical; conditions: for IC50: 38 uM ATP; for JAK2/JAK1: ratio of IC50 JAK2 to IC50 JAK1
Chain of JAK1 (P23458 whole entry): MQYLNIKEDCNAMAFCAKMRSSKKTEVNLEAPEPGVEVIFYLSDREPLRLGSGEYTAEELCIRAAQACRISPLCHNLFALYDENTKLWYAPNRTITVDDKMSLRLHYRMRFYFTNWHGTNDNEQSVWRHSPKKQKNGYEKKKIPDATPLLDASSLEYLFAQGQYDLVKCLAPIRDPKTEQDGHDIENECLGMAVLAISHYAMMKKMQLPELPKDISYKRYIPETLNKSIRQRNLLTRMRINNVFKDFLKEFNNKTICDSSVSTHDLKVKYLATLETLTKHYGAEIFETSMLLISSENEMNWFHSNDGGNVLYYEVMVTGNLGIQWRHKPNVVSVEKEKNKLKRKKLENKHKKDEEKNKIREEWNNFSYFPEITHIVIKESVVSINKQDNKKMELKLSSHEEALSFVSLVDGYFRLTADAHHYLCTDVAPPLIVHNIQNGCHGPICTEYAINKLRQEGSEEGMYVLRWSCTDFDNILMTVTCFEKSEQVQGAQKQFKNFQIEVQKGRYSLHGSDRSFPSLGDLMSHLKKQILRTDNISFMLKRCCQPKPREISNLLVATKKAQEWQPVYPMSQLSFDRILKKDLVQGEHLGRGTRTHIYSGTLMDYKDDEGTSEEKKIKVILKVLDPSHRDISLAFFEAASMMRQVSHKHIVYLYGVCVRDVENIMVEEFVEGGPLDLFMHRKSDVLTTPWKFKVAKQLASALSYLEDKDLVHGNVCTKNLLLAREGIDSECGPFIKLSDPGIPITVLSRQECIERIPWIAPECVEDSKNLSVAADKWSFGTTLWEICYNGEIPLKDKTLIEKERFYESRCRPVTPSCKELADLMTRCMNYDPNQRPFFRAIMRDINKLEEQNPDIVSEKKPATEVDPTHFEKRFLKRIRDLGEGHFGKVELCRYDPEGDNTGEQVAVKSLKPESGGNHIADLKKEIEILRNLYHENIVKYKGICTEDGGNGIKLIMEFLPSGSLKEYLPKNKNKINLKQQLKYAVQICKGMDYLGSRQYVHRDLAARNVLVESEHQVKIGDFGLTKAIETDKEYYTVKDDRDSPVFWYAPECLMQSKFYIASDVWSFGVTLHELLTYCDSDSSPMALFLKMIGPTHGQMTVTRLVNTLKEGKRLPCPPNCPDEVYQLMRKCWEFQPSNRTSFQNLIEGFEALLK
Outline: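 JAK1 preincubated with compound 10 min at room temperature, then ULight-JAK-1 peptide/ATP added for 90 min at room temperature; stopped with EDTA, Eu-W1024 anti-phosphotyrosine TR-FRET read after 60 min. Inhibition normalised to DMSO and blank wells; IC50 from curve fit.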

[4] = tested on: Blast T cell; assay: Cell proliferation test of IL-2 stimulated Blast T cell; type: cell-based; conditions: Homo sapiens; IL-2 stimulated Blast T cell proliferation, 72 hours
Description: Inhibiting test of the compounds of the invention on proliferation of Blast T cell and TF-1 cell (American type culture collection) was carried out by the following method. The tested compounds […], and […] were dissolved in dimethyl sulfoxide from 0.0006 to 10 μM in quadruplicate dilutions. […] 10 μg/ml […] was added to stimulate and obtain cells with a density of 2×10^6/mL, which were incubated for 3 days. The cells were washed with phosphate buffer for three times and IL-2 (100 u/ml) was added to stimulate for 1 week. Cells were suspended using the culture medium and seeded at 5×10^4 cell/well density into 96-well plates, and incubated for 1 h with the prepared test compound or DMSO control at various concentrations from 0.0006 to 10 μM diluted by 4-fold volume. After incubation with 20 u/ml of IL-2 (50 μl/well without reference well) for 72 hours, Celltiter Glo® reagent (Promega, G7571) was added and mixed for 5 minutes, then incubated for 30 minutes at room temperature. The luminescence value was read on SpectraMax L (Molecular Device). […] The IC50 values of the corresponding compounds were then obtained by fitting by using the XLFit fitting tool in excel.

[5] = target: JAK2 (Homo sapiens (Human), UniProt O60674); assay: JAK2 LANCE Ultra kinase assay; type: biochemical; conditions: 12 uM ATP
Chain of JAK2 (O60674 whole entry): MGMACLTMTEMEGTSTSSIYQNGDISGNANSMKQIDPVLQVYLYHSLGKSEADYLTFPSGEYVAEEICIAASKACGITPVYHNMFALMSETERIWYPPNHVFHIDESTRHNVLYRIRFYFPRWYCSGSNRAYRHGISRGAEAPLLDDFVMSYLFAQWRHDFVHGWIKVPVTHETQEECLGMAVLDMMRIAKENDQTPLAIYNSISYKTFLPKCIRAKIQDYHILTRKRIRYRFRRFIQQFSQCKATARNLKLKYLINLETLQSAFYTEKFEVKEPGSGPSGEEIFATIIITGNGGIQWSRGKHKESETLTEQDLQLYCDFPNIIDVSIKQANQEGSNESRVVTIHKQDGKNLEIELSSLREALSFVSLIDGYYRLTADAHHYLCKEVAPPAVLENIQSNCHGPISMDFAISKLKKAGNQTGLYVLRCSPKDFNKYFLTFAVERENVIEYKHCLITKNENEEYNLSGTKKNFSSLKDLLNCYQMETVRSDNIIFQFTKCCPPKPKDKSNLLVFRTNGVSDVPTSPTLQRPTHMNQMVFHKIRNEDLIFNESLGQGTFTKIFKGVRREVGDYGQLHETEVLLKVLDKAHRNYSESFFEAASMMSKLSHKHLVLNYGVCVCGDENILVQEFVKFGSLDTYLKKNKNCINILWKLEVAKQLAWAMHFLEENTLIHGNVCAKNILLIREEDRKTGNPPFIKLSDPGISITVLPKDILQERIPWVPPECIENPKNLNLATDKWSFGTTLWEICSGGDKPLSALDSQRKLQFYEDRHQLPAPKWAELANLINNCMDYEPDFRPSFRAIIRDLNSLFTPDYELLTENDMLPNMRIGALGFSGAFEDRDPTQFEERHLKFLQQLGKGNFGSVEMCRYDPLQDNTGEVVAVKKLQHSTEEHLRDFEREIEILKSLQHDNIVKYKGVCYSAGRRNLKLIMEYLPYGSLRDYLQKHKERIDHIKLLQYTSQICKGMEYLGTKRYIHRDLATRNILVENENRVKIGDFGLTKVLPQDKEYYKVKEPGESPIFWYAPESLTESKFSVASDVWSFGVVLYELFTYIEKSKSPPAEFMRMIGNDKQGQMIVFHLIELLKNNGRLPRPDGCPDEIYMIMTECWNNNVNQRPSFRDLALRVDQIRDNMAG

Chain of JAK3 (P52333 whole entry): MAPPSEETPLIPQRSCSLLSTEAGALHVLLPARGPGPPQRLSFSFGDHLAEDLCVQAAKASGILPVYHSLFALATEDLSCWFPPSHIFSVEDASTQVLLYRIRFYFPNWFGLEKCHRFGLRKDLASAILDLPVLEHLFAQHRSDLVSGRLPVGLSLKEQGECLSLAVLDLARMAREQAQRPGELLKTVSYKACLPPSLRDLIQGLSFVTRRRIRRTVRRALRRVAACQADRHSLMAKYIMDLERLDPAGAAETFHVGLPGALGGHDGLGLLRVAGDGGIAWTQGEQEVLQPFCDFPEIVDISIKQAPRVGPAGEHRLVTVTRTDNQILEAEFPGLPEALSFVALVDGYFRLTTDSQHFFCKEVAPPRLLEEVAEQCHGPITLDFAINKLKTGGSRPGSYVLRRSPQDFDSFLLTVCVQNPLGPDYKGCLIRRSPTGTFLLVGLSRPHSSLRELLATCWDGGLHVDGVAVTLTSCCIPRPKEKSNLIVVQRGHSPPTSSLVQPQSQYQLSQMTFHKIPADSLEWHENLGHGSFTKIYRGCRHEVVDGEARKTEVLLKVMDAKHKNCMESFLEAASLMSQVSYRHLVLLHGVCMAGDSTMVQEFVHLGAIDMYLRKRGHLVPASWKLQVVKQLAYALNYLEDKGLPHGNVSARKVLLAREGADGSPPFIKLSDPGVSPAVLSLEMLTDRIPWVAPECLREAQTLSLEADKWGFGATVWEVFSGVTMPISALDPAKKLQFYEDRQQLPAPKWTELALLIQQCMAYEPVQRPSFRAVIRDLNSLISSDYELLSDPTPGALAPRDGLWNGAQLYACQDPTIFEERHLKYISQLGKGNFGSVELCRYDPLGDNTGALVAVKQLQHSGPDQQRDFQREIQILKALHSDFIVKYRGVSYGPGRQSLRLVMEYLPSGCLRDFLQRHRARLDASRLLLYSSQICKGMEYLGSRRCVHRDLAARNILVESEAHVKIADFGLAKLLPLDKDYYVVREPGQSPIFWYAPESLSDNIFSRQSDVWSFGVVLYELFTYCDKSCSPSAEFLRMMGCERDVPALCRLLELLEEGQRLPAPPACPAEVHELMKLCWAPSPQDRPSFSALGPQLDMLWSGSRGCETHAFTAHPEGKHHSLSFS

| Structure (SMILES) | IC50 [1] | IC50 [3] | JAK2/JAK1 [3] | IC50 [5] | IC50 [2] | IC50 [4] |
| --- | --- | --- | --- | --- | --- | --- |
| COc1nsc(NC(=O)N2C[C@H]3C[C@H](Nc4c(C(F)(F)F)cnc5[nH]ccc45)C[C@H]3C2)n1 [Compound H50, (3aR,5s,6aS)-5-((5-trifluoromethyl-1H-pyrrolo[2,3-b]pyridin-4-yl)amino)-N-(3-methoxy-1,2,4-thiadiazole-5-yl)hexahydrocyclopentadiene[c]pyrrole-2(1H)-carboxamide] | 137 nM | 4.65 nM |  | 33 nM | 0.85 µM | 0.034 µM |
| COc1noc(NC(=O)N2C[C@H]3C[C@H](N(C)c4c(C#N)cnc5[nH]ccc45)C[C@H]3C2)n1 [Compound H43, (3aR,5s,6aS)-5-((5-cyano-1H-pyrrolo[2,3-b]pyridin-4-yl)(methyl)amino)-N-(3-methoxy-1,2,4-oxadiazole-5-yl)hexahydrocyclopentadiene[c]pyrrole-2(1H)-carboxamide] | 125 nM | 2.4 nM | 8.33 | 20 nM | 1.44 µM | 0.043 µM |
| CC[C@@H]1CN(C(=O)CC(F)(F)F)C[C@@H]1N(C)c1c(C#N)cnc2[nH]ccc12 (relative stereo) [Compound H03, (cis)-4-{[4-ethyl-1-(3,3,3-trifluoropropionyl)pyrrolidin-3-yl]-methyl-amino}-1H-pyrrolo[2,3-b]pyridin-5-carbonitrile] | 133 nM | 2.86 nM | 7.69 | 22 nM | 0.76 µM | 0.027 µM |
| CN(c1c(C#N)cnc2[nH]ccc12)[C@H]1C[C@@H](NS(=O)(=O)c2cccc3nonc23)C1 [Compound H18, (cis)-4-{[3-(benzo[c][1,2,5]oxadiazole-4-sulfonamido)-cyclobutyl-1-yl]-methyl-amino}-1H-pyrrolo[2,3-b]pyridin-5-carbonitrile] | 40 nM | 0.65 nM |  | 5.7 nM | 1.56 µM | 0.04 µM |
| CC[C@@H]1CN(C(=O)NCC(F)(F)F)C[C@@H]1Nc1c(C(F)(F)F)cnc2[nH]ccc12 (relative stereo) [Compound H92, (cis)-3-ethyl-N-(2,2,2-trifluoroethyl)-4-((5-(trifluoromethyl)-1H-pyrrolo[2,3-b]pyridin-4-yl)amino)pyrrolidin-1-carboxamide] | 258 nM | 8.21 nM | 1.81 | 14.9 nM | 0.91 µM | 0.027 µM |

Now from value to compound, other results behind:

| IC50 [1] | IC50 [3] | JAK2/JAK1 [3] | IC50 [5] | Structure (SMILES) | IC50 [2] | IC50 [4] |
| --- | --- | --- | --- | --- | --- | --- |
| 63 nM | 0.39 nM | 7.69 | 3 nM | CCc1nsc(NC(=O)N2C[C@H]3C[C@H](N(C)c4c(C#N)cnc5[nH]ccc45)C[C@H]3C2)n1 [Compound H08, (3aR,5s,6aS)-4-({2-[(3-ethyl-1,2,4-thiadiazole-5-yl)carbamoyl]-hexahydrocyclopenta[c]pyrrole-5-yl}-methyl-amino)-1H-pyrrolo[2,3-b]pyridin-5-carbonitrile] | 1.3 µM | 0.026 µM |
| 156 nM | 3.86 nM |  | 26.5 nM | CN(c1c(C#N)cnc2[nH]ccc12)[C@H]1C[C@@H](NS(=O)(=O)c2cccc(C(F)(F)F)c2)C1 [Compound H09, 4-{[3-(3-(trifluoromethyl)benzenesulfonamido)-cyclobutyl-1-yl]-methyl-amino}-1H-pyrrolo[2,3-b]pyridin-5-carbonitrile] | 1.56 µM | 0.036 µM |
| 48 nM | 5.47 nM | 2.86 | 15.7 nM | CC[C@@H]1CN(C(=O)NC(C)C(C)C)C[C@@H]1Nc1c(C#N)cnc2[nH]ccc12 (relative stereo) [Compound H85, (cis)-3-((5-cyano-1H-pyrrolo[2,3-b]pyridin-4-yl)amino)-4-ethyl-N-(3-methylbutane-2-yl) pyrrolidin-1-carboxamide] | 1.47 µM | 0.032 µM |
| 47 nM | 6.7 nM | 2.07 | 13.9 nM | COCCOC1CCCN(S(=O)(=O)C[C@H]2CC[C@@H](N(C)c3c(C#N)cnc4[nH]ccc34)C2)C1 (stereo partly drawn) [Compound H70] | 1.53 µM | 0.048 µM |
| 101 nM | 2.6 nM | 6.92 | 18 nM | CN(c1c(C#N)cnc2[nH]ccc12)[C@H]1C[C@@H]2CN(C(=O)Nc3nc(C4CC4)ns3)C[C@@H]2C1 [Compound H26, (3aR,5s,6aS)-5-((5-cyano-1H-pyrrolo[2,3-b]pyridin-4-yl)(methyl)amino)-N-(3-cyclopropyl-1,2,4-thiadiazole-5-yl)hexahydrocyclopentadiene[c]pyrrole-2(1H)-carboxamide] | 1.98 µM | 0.027 µM |
